In turn, `*/C=C/c1c(OC(=O)c2ccc(C(=O)Oc3ccc4ccccc4c3/C=C/c3cccc(*)n3)cc2)ccc2ccccc12` (repeat unit) yielded a glass transition temperature of 145.00 °C.
The compound `*/N=N/c1ccc([Te]c2ccc(*)cc2)cc1` (repeat unit) registered a glass transition temperature of 300.00 °C.
`*C(=O)Nc1ccc(-c2ccc(NC(=O)c3ccc4c(c3)C(=O)N(c3c(C)cc(C)c(N5C(=O)c6ccc(*)cc6C5=O)c3C)C4=O)cc2C(F)(F)F)c(C(F)(F)F)c1` (repeat unit) came in with a glass transition temperature of 267.00 °C.
For `*C(=O)Nc1ccc(C(c2ccc(NC(=O)c3ccc4c(c3)C(=O)N(c3c(C)cc(C)c(N5C(=O)c6ccc(*)cc6C5=O)c3C)C4=O)cc2)(C(F)(F)F)C(F)(F)F)cc1` (repeat unit), the glass transition temperature worked out at 250.00 °C.
`*C(=O)Nc1cccc(Oc2cccc(Oc3cccc(NC(=O)c4ccc5c(c4)C(=O)N(c4cccc(Oc6cccc(Oc7cccc(N8C(=O)c9ccc(*)cc9C8=O)c7)c6C#N)c4)C5=O)c3)c2C#N)c1` (repeat unit) yielded a glass transition temperature of 214.00 °C.
With `*C(=O)c1ccc2c(c1)C(=O)N(c1cc(N3C(=O)c4ccc(*)cc4C3=O)c(O)cc1O)C2=O` (repeat unit), the glass transition temperature was 324.00 °C.
Consider `*C(=O)c1ccc2c(c1)C(=O)N(c1ccc(/C=C/c3ccc(N4C(=O)c5ccc(*)cc5C4=O)cc3S(=O)(=O)[O][Na])c(S(=O)(=O)[O][Na])c1)C2=O` (repeat unit), for which the glass transition temperature is 229.00 °C.
Consider `*C(=O)c1ccc2c(c1)C(=O)N(c1cccc(C(=O)c3c(C)cc(C)c(N4C(=O)c5ccc(*)cc5C4=O)c3C)c1)C2=O` (repeat unit), for which the glass transition temperature came out at 300.00 °C.
As to `*CCCN(Cc1ccccc1)C(=O)S*` (repeat unit), the glass transition temperature amounted to 27.00 °C.
Turning to `*Oc1c(F)c(F)c(Sc2c(F)c(F)c(Oc3ccc(C(c4ccc(*)cc4)(C(F)(F)F)C(F)(F)F)cc3)c(F)c2F)c(F)c1F` (repeat unit), the glass transition temperature worked out at 141.50 °C.
`*Oc1cc(Br)c(C(C)(C)c2c(Br)cc(OC(*)=O)cc2Br)c(Br)c1` (repeat unit): the glass transition temperature was determined as 267.00 °C.
`*Oc1ccc(Sc2ccc(Sc3ccc(Sc4ccc(*)cc4)cc3)cc2)cc1` (repeat unit) displayed a glass transition temperature of 84.00 °C.
`*Oc1cccc(C(F)(F)C(F)(F)C(F)(F)c2cccc(OC(*)=O)c2)c1` (repeat unit) showed a glass transition temperature of 46.00 °C.
As to `*Oc1cccc(OC(=O)c2ccc(OC(=O)c3cccc(C(=O)Oc4ccc(C(*)=O)cc4)c3)cc2)c1` (repeat unit), the glass transition temperature worked out at 158.00 °C.
With `*Oc1cccc(OC2(F)C(*)(F)C(F)(F)C2(F)F)c1` (repeat unit) the figure was 32.00 °C.
On to `*Oc1cccc(Oc2ccc(C(=O)O)c(C(=O)Nc3ccc(Oc4ccc(-c5ccc(Oc6ccc(NC(=O)c7cc(*)ccc7C(=O)O)cc6)cc5)cc4)cc3)c2)c1` (repeat unit), for which the glass transition temperature turned out to be 100.00 °C.
To `*Oc1cccc(Oc2ccc(C(=O)Oc3cccc(OC(=O)c4ccc(*)cc4)c3)cc2)c1` (repeat unit) belongs 131.00 °C; to `*Oc1cccc(Oc2ccc3c(=O)n4c5cc(Oc6ccc7c(c6)nc6c8ccc(*)c9cccc(c(=O)n76)c98)ccc5nc4c4cccc2c34)c1` (repeat unit), 369.50 °C; to `*Oc1cccc(Oc2cccc(*)n2)c1` (repeat unit), 82.00 °C.
`*Oc1cccc2c(OC(=O)c3ccc(Oc4ccc(C(*)=O)cc4)cc3)cccc12` (repeat unit): the glass transition temperature was determined as 171.00 °C.
`*Oc1cccc2c(OC3(F)C(*)(F)C(F)(F)C3(F)F)cccc12` (repeat unit) yielded a glass transition temperature of 138.00 °C.
For the compound `*Oc1ccccc1-c1ccccc1Oc1ccc2c(=O)n3c4cc(-c5ccc6c(c5)nc5c7ccc(*)c8cccc(c(=O)n65)c87)ccc4nc3c3cccc1c23` (repeat unit), the glass transition temperature was 376.00 °C.
To `*SC(C)C(*)=O` (repeat unit) belongs 12.00 °C; to `*SSc1ccc(/N=C/Nc2ccc(*)cc2)cc1` (repeat unit), 98.00 °C.
Take `*Sc1c(C)cc(*)cc1C` (repeat unit): the glass transition temperature came to 198.00 °C.
Regarding `*Sc1ccc(Sc2ccc(Sc3ccc4c(c3)Sc3ccc(*)cc3S4)cc2)cc1` (repeat unit), the glass transition temperature turned out to be 154.00 °C.
`*Sc1ccc(Sc2ccc(Sc3cccc4c3C(=O)N(N3C(=O)c5cccc(*)c5C3=O)C4=O)cc2)cc1` (repeat unit): the glass transition temperature is 266.00 °C.
For the compound `*[Si](*)(C)CCCOCC1COC(C)(C)O1` (repeat unit), the glass transition temperature is -48.00 °C.
On to `*[Si](*)(C)c1ccccc1` (repeat unit), for which the glass transition temperature worked out at 88.00 °C.
`*c1[nH]c(*)c(OC)c1OC` (repeat unit): the glass transition temperature was -26.00 °C.
The compound `*c1cc(-c2sc(-c3cc(CCCC)c(*)s3)cc2CCCC)c2cccccc1-2` (repeat unit) had a glass transition temperature of 124.00 °C.
With `*c1cc(N2C(=O)c3ccc(Oc4ccc5ccc(Oc6ccc7c(c6)C(=O)N(*)C7=O)cc5c4)cc3C2=O)cc(C(F)(F)F)c1` (repeat unit) the figure was 235.00 °C.
With `*c1ccc(-c2nc3cc(Oc4ccc5nc(*)c(-c6ccccc6)nc5c4)ccc3nc2-c2ccccc2)cc1` (repeat unit) the figure was 326.00 °C; with `*c1ccc(-c2nc3ccc(Oc4ccc5nc(*)c(-c6ccccc6)nc5c4)cc3nc2-c2ccccc2)cc1` (repeat unit), 304.00 °C; with `*c1ccc(C(=O)Oc2ccc3ccc(OC(=O)c4ccc(N5C(=O)CC(SCCOCCSC6CC(=O)N(*)C6=O)C5=O)cc4)cc3c2)cc1` (repeat unit), 160.00 °C.
`*c1ccc(C(c2ccc(N3C(=O)c4ccc(Oc5ccc6cc(Oc7ccc8c(c7)C(=O)N(*)C8=O)ccc6c5)cc4C3=O)cc2)(C(F)(F)F)C(F)(F)F)cc1` (repeat unit) yielded a glass transition temperature of 218.00 °C.
Consider `*c1ccc(N2C(=O)c3ccc(C(=O)c4ccc5c(c4)C(=O)N(c4ccc(-c6nc7cc(Oc8ccc9nc(-c%10ccccc%10)c(*)nc9c8)ccc7nc6-c6ccccc6)cc4)C5=O)cc3C2=O)cc1` (repeat unit), for which the glass transition temperature was found to be 254.00 °C.
Compound `*c1ccc(Oc2ccc(-c3ccc(Oc4ccc(N5C(=O)c6ccc(Oc7ccc8ccc(Oc9ccc%10c(c9)C(=O)N(*)C%10=O)cc8c7)cc6C5=O)cc4)cc3)cc2)cc1` (repeat unit) came in with a glass transition temperature of 231.00 °C.
`*c1ccc(Oc2ccc(-c3nc4cc(Oc5ccc6nc(*)c(-c7ccccc7)nc6c5)ccc4nc3-c3ccccc3)cc2)cc1` (repeat unit): the glass transition temperature came to 243.00 °C.
Compound `*c1ccc(Oc2ccc(-c3nc4cc(Oc5ccc6nc(-c7ccccc7)c(*)nc6c5)ccc4nc3-c3ccccc3)cc2)cc1` (repeat unit) came in with a glass transition temperature of 263.00 °C.
`*c1ccc(Oc2ccc(-c3nc4ccc(Oc5ccc6nc(*)c(-c7ccccc7)nc6c5)cc4nc3-c3ccccc3)cc2)cc1` (repeat unit) displayed a glass transition temperature of 437.00 °C.
For the compound `*c1ccc(Oc2ccc(C(C)(C)c3ccccc3)cc2)c(-n2c(=O)c3cc4c(=O)n(*)c(=O)c4cc3c2=O)c1` (repeat unit), the glass transition temperature amounted to 340.00 °C.
On to `*c1ccc(Oc2ccc(C3(c4ccc(Oc5ccc(N6C(=O)c7ccc(Oc8ccccc8Oc8ccc9c(c8)C(=O)N(*)C9=O)cc7C6=O)cc5C(F)(F)F)cc4)c4ccccc4-c4ccccc43)cc2)c(C(F)(F)F)c1` (repeat unit), for which the glass transition temperature is 241.00 °C.
For the compound `*c1ccc(Oc2ccc(N3C(=O)c4ccc(Oc5cccc(Oc6ccc7c(c6)C(=O)N(*)C7=O)c5)cc4C3=O)cc2)cc1` (repeat unit), the glass transition temperature was found to be 209.00 °C.
For `*c1ccc(Oc2ccc(N3C(=O)c4ccc(Oc5ccccc5Oc5ccc6c(c5)C(=O)N(*)C6=O)cc4C3=O)cc2)cc1` (repeat unit), the glass transition temperature came to 212.00 °C.
Regarding `*c1ccc(Oc2cccc(Oc3ccc(N4C(=O)c5ccc(Oc6cccc(Oc7ccc8c(c7)C(=O)N(*)C8=O)c6)cc5C4=O)cc3)c2)cc1` (repeat unit), the glass transition temperature worked out at 188.00 °C.
With `*c1ccc(Sc2cc3c(cc2Sc2ccc(N4C(=O)C5C6C=CC(C7C(=O)N(*)C(=O)C67)C5C4=O)cc2)C(=O)N(CCN(C)C)C3=O)cc1` (repeat unit) the figure was 310.00 °C; with `*c1ccc(Sc2cc3c(cc2Sc2ccc(N4C(=O)C5C6C=CC(C7C(=O)N(*)C(=O)C67)C5C4=O)cc2)C(=O)N(CCc2ccccc2)C3=O)cc1` (repeat unit), 258.00 °C; with `*c1ccc(Sc2cc3c(cc2Sc2ccc(N4C(=O)c5ccc(Oc6ccc7c(c6)C(=O)N(*)C7=O)cc5C4=O)cc2)C(=O)N(CCCCCCCCCCCCCCCC)C3=O)cc1` (repeat unit), 156.00 °C.
In the case of `*c1ccc(Sc2cc3c(cc2Sc2ccc(N4C(=O)c5ccc(Oc6ccc7c(c6)C(=O)N(*)C7=O)cc5C4=O)cc2)C(=O)N(CCc2ccccc2)C3=O)cc1` (repeat unit), the glass transition temperature was 218.00 °C.
Regarding `*c1ccc(Sc2ccc(Sc3ccc(N4C(=O)c5ccc(Sc6ccc(Sc7ccc(Sc8ccc9c(c8)C(=O)N(*)C9=O)cc7)cc6)cc5C4=O)cc3)s2)cc1` (repeat unit), the glass transition temperature came out at 185.50 °C.
As to `*c1cccc(-c2nc3ccc(Oc4ccc5nc(*)c(-c6ccccc6)nc5c4)cc3nc2-c2ccccc2)c1` (repeat unit), the glass transition temperature was determined as 270.00 °C.
In turn, `*c1cccc(N2C(=O)c3ccc(Oc4ccc5ccc(Oc6ccc7c(c6)C(=O)N(*)C7=O)cc5c4)cc3C2=O)c1` (repeat unit) gave a glass transition temperature of 254.00 °C.
For `*c1cccc(N2C(=O)c3ccc(Oc4cccc(Oc5ccc6c(c5)C(=O)N(*)C6=O)c4)cc3C2=O)c1` (repeat unit), the glass transition temperature was 224.00 °C.
With `*c1cccc(N2C(=O)c3ccc(Oc4cccc5c(Oc6ccc7c(c6)C(=O)N(*)C7=O)cccc45)cc3C2=O)c1` (repeat unit) the figure was 260.00 °C.
Turning to `*c1cccc(N2C(=O)c3cccc(Oc4cccc(Oc5cccc6c5C(=O)N(*)C6=O)c4)c3C2=O)c1` (repeat unit), the glass transition temperature worked out at 241.00 °C.
